Measurements from ChEMBL document CHEMBL5360534, “Synthetic α-glucosidase inhibitors as promising anti-diabetic agents: Recent developments and future challenges” (Eur J Med Chem, 2023).
Blank lines part the entries; values can stand above or below the compound they belong to.

Columns and labels:
[1] = biological target: T1, Alpha-glucosidase (Saccharomyces cerevisiae S288c, UniProt P53341+P38158+P07265); assay: Inhibition of Saccharomyces cerevisiae alpha-glucosidase; type: protein assay
[2] = biological target: T1, Alpha-glucosidase; assay: Competitive inhibition of Saccharomyces cerevisiae alpha-glucosidase assessed as inhibition constant; type: protein assay
[3] = biological target: Alpha-glucosidase (Saccharomyces cerevisiae S288c) (UniProt P53341+P38158+P07265); assay: Potency index, ratio of acarbose IC50 to test compound IC50 for inhibition of Saccharomyces cerevisiae alpha-glucosidase; type: protein assay
[4] = Inhibition of alpha-glucosidase (unknown origin); set-up: species or system Homo sapiens
[5] = organism: Homo sapiens; assay: Potency index, ratio of acarbose IC50 to test compound IC50 for inhibition of alpha-glucosidase (unknown origin)
[6] = Inhibition of alpha-glucosidase (unknown origin) using p-nitrophenyl-alpha-D-glucopyranoside as substrate preincubated for 15 mins followed by substrate addition and measured after 30 mins by multiplate spectrophotometric analysis; set-up: species or system Homo sapiens
[7] = biological target: T1, Alpha-glucosidase; assay: Inhibition of Saccharomyces cerevisiae alpha-glucosidase using p-nitrophenyl-alpha-D-glucopyranoside as substrate incubated for 30 mins by spectrophotometric analysis; type: protein assay
[8] = biological target: T1, Alpha-glucosidase; assay: Inhibition of Saccharomyces cerevisiae alpha-glucosidase using p-nitrophenyl-alpha-D-glucopyranoside as substrate preincubated for 10 mins followed by substrate addition and measured after 30 mins by absorbance based analysis; type: protein assay
[9] = Inhibition of alpha-glucosidase (unknown origin) using pNPG as substrate preincubated for 20 mins followed by substrate addition and measured after 1 hr by absorbance based analysis; set-up: species or system Homo sapiens
[10] = Inhibition of alpha-glucosidase (unknown origin) using p-nitrophenylglucopyranoside as substrate preincubated for 10 mins followed by substrate addition and measured by absorbance based analysis; set-up: species or system Homo sapiens
[11] = organism: Homo sapiens; assay: Inhibition of alpha-glucosidase (unknown origin) using p-nitrophenylglucopyranoside as substrate at 100 microg/ml preincubated for 10 mins followed by substrate addition and measured by absorbance based analysis relative to control; conditions: dose 100.0 µg/ml
[12] = biological target: T1, Alpha-glucosidase; assay: Inhibition of Saccharomyces cerevisiae alpha-glucosidase using p-nitrophenyl-alpha-D-glucopyranoside as substrate preincubated for 5 mins followed by substrate addition and measured after 5 mins by absorbance based analysis; type: protein assay
[13] = Inhibition of alpha-glucosidase (unknown origin) assessed as reduction in starch digestion preincubated with alpha-amylase for 20 mins followed by alpha-glucosidase addition and measured after 30 mins by absorbance based analysis; set-up: species or system Homo sapiens
[14] = Inhibition of alpha-glucosidase (unknown origin) using p-NPG as substrate preincubated for 5 mins followed by substrate addition and measured after 30 mins by absorbance based analysis; set-up: species or system Homo sapiens
[15] = biological target: T1, Alpha-glucosidase; assay: Inhibition of Saccharomyces cerevisiae alpha-glucosidase using p-nitrophenyl-alpha-D-glucopyranoside as substrate preincubated for 10 mins followed by substrate addition and measured after 30 mins by absorbance based microplate reader analysis; type: protein assay
[16] = Inhibition of alpha-glucosidase (unknown origin) using p-nitrophenyl glucopyranoside as substrate preincubated for 10 mins followed by substrate addition and measured after 30 mins by absorbance based analysis; set-up: species or system Homo sapiens
[17] = Inhibition of alpha-glucosidase (unknown origin) using p-nitrophenyl-alpha-D-glucopyranoside as substrate preincubated for 5 mins followed by substrate addition and measured after 5 mins by spectrophotometric analysis; set-up: species or system Homo sapiens
[18] = Inhibition of alpha-glucosidase (unknown origin) using p-nitrophenyl-alpha-D-glucopyranoside as substrate preincubated for 15 mins followed by substrate addition and measured after 15 mins by absorbance based microplate reader analysis; set-up: species or system Homo sapiens
[19] = biological target: T1, Alpha-glucosidase; assay: Inhibition of Saccharomyces cerevisiae alpha-glucosidase using pNPG as substrate preincubated for 10 mins followed by substrate addition and measured after 20 mins by spectrophotometric analysis; type: protein assay
[20] = biological target: T1, Alpha-glucosidase; assay: Competitive inhibition of Saccharomyces cerevisiae alpha-glucosidase using pNPG as substrate assessed as inhibition constant preincubated for 10 mins followed by substrate addition and measured after 20 mins by spectrophotometric analysis; type: protein assay
[21] = biological target: T1, Alpha-glucosidase; assay: Inhibition of Saccharomyces cerevisiae alpha-glucosidase using p-nitrophenyl glucopyranoside as substrate preincubated for 10 mins followed by substrate addition and measured after 20 mins by spectrophotometric analysis; type: protein assay

Structure (SMILES): O=C(COc1ccc(C(c2c(O)c3ccccc3oc2=O)c2c(O)c3ccccc3oc2=O)cc1)Nc1ccc(Br)cc1
IC50 [1]: 41.73 µM
Ki [2]: 44 µM
Ratio IC50 [3]: 18

Structure (SMILES): CCOC(=O)CN1C(=O)/C(=N\NC(=O)c2ccccc2Cl)c2ccccc21
IC50 [4]: 13.2 µM
Ratio IC50 [5]: 2

Structure (SMILES): CCCCCCSc1nc2ccccc2n1CC(=O)NN1C(=O)CSC1c1ccc([N+](=O)[O-])cc1 (stereo unspecified)
IC50 [6]: 5.22 µM

Structure (SMILES): Oc1ccccc1-c1nn(CNN2CCOCC2)c(=S)o1
IC50 [10]: 43.1 µM
inhibition [11]: 82%

Structure (SMILES): Oc1ccc(-c2nc3ncccc3[nH]2)cc1O
IC50 [12]: 13.5 µM

Structure (SMILES): Nc1ccccc1-c1nn(CNN2CCOCC2)c(=S)o1
IC50 [10]: 53.6 µM
inhibition [11]: 85%

Structure (SMILES): N#Cc1ccc2[nH]c(-c3nnc(Nc4ccc(Cl)c(Cl)c4)s3)cc2c1
IC50 [8]: 0.95 µM

Structure (SMILES): Cc1cc2nc(-c3ccc(C(=O)NNC(=S)Nc4ccc([N+](=O)[O-])cc4)cc3)[nH]c2cc1C
IC50 [15]: 35.83 µM

Structure (SMILES): FC(F)(F)c1cccc(-c2nnc(-c3c[nH]c4ncccc34)o2)c1
IC50 [16]: 0.46 µM

Structure (SMILES): O=C(N/N=C/c1ccc(O)c(O)c1)c1cc2ccccc2oc1=O
IC50 [12]: 1.1 µM

Structure (SMILES): CCCCCCSc1nc2ccccc2n1CC(=O)NN1C(=O)CSC1c1ccc(C=O)cc1 (stereo unspecified)
IC50 [6]: 5.69 µM

Structure (SMILES): O=c1oc2ccccc2cc1-c1nn(C(Nc2ccccc2Oc2ccccc2NC(c2cccc(Br)c2)n2nc(-c3cc4ccccc4oc3=O)oc2=O)c2cccc(Br)c2)c(=O)o1 (stereo unspecified)
IC50 [14]: 0.07 µM

Structure (SMILES): CCCCCCSc1nc2ccccc2n1CC(=O)NN1C(=O)CSC1c1ccc(O)c(OC)c1 (stereo unspecified)
IC50 [6]: 10.2 µM

Structure (SMILES): O=C(CCCSc1nc2ccccc2s1)Nc1cccc2ccccc12
IC50 [7]: 11 µM

The next lines start with the values.

IC50 [4]: 4.54 µM
Ratio IC50 [5]: 47
Structure (SMILES): Fc1ccc(-c2cn3c(Cc4n[nH]c(=S)n4-c4cccc5ccccc45)csc3n2)cc1

IC50 [1]: 24.37 µM
Ratio IC50 [3]: 35
Structure (SMILES): O=c1cc(-c2ccc(OCc3cn(Cc4cc(Cl)ccc4Cl)nn3)cc2)oc2ccccc12

IC50 [7]: 3.55 µM
Structure (SMILES): COc1cc2oc(=O)ccc2cc1-c1c(O)cc(O)c2c1O/C(=C\c1ccccc1)C2=O

IC50 [8]: 2.78 µM
Structure (SMILES): O=c1oc2ccccc2cc1-c1nn(-c2ccccc2)cc1-c1nc(-c2ccccc2)c(-c2ccccc2)[nH]1

IC50 [9]: 70.6 µM
Structure (SMILES): Cc1ccc(S(=O)(=O)n2cc(-c3oc4cc(Br)cc(Br)c4c(=O)c3O)c3ccccc32)cc1

IC50 [13]: 0.54 µM
Structure (SMILES): C=c1[nH]c(=O)s/c1=C/c1ccc(Oc2nc3ccccc3n2Cc2ccc(Cl)cc2)cc1

IC50 [13]: 9.48 µM
Structure (SMILES): O=C1NC(=S)S/C1=C\c1ccc(Nc2nc3ccccc3o2)cc1

IC50 [14]: 0.09 µM
Structure (SMILES): COc1ccccc1N1C(=O)/C(=C\c2ccc(F)cc2)S/C1=N\NC(=O)c1cc2ccccc2oc1=O

IC50 [1]: 24.77 µM
Ratio IC50 [3]: 35
Structure (SMILES): O=c1cc(-c2ccc(OCc3cn(Cc4ccc(Cl)cc4)nn3)cc2)oc2ccccc12

IC50 [17]: 2.3 µM
Structure (SMILES): Oc1ccc(/C=N/c2nnc(-c3ccc(Cl)cc3)s2)cc1

IC50 [18]: 890 µM
Structure (SMILES): COc1cc2c(=O)c(-c3ccccc3)coc2cc1O/C(=C\N(C)C)C(=O)c1ccc(Cl)cc1

IC50 [8]: 2.53 µM
Structure (SMILES): O=c1oc2ccc(Br)cc2cc1-c1nn(-c2ccccc2)cc1-c1nc(-c2ccccc2)c(-c2ccccc2)n1-c1ccc(Cl)cc1

IC50 [4]: 14.5 µM
Ratio IC50 [5]: 2
Structure (SMILES): CCOC(=O)CN1C(=O)/C(=N\NC(=O)c2ccc(Cl)cc2)c2ccccc21

IC50 [15]: 52.63 µM
Structure (SMILES): Cc1ccc(NC(=O)C(C)Sc2nnc(-c3ccc(Cl)cc3)o2)cc1C (stereo unspecified)

IC50 [19]: 215 µM
Ki [20]: 122 µM
Structure (SMILES): Clc1ccc(C2=NOC(c3ccccc3)N2c2ccc(Cl)cc2)cc1 (stereo unspecified)

Ki [20]: 82 µM
IC50 [21]: 85.6 µM
Structure (SMILES): CCOC(=O)c1c(SCc2cn(Cc3cccc([N+](=O)[O-])c3)nn2)nnc(-c2ccccc2)c1-c1ccccc1

IC50 [4]: 2.5 µM
Ratio IC50 [5]: 15
Structure (SMILES): O=[N+]([O-])c1ccccc1/C(CSc1nnc2c(n1)[nH]c1ccccc12)=N\c1nnc(-c2cccc(O)c2)s1

IC50 [1]: 65 µM
Ki [2]: 64 µM
Structure (SMILES): O=C(/C=C\c1ccc(OCc2cn(Cc3ccc(O)cc3)nn2)cc1)NCCc1c[nH]c2ccccc12

IC50 [17]: 1.6 µM
Structure (SMILES): O=S(=O)(NCCc1c[nH]c2ccccc12)c1cc(F)ccc1Cl
